ChEMBL document CHEMBL5500414 (J Med Chem, 2024)

How the values were obtained:
BCL2A1/BID [1] = biological target: T1, BCL2A1/BID (Homo sapiens, UniProt Q16548)
T1 sequence (Q16548 whole entry): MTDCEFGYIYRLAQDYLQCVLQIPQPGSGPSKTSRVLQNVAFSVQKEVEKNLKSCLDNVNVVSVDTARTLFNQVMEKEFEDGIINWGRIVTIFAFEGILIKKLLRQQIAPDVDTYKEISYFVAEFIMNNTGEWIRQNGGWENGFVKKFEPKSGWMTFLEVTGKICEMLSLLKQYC
T1 sequence (P55957 whole entry): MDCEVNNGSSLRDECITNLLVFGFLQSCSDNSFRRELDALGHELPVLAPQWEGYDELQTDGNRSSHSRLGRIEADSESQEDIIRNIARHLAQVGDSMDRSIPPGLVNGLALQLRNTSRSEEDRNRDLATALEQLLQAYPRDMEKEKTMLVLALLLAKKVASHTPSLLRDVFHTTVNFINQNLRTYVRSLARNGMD

[2] = biological target: Induced myeloid leukemia cell differentiation protein Mcl-1/BH3-interacting domain death agonist (Homo sapiens, UniProt Q07820)
Description: Inhibition of MCL-1 (unknown origin)/FAM-BID (unknown origin) interaction measured by fluorescence polarization assay

MV4-11 = assay: Antiproliferative activity against human MV4-11 cells expressing high BCL-2 assessed as cell viability measured after 72 hrs by Cell Counting Kit-8 assay; conditions: MV4-11, 72 h
Pfeiffer = assay: Antiproliferative activity against human Pfeiffer cells expressing high BCL-2/BFL-1 assessed as cell viability measured after 72 hrs by Cell Counting Kit-8 assay
[3] = Glutathione reactivity assessed as half life
BCL2A1/BID [4] = biological target: T1, BCL2A1/BID; remark: listed apart in the source
Description: Inhibition of BFL-1 (unknown origin)/FITC-conjugated Bid BH3 peptide (unknown origin) interaction by fluorescence polarization assay

Chain of Induced myeloid leukemia cell differentiation protein Mcl-1/BH3-interacting domain death agonist (Q07820 whole entry, one chain of several, the tested form may be a part): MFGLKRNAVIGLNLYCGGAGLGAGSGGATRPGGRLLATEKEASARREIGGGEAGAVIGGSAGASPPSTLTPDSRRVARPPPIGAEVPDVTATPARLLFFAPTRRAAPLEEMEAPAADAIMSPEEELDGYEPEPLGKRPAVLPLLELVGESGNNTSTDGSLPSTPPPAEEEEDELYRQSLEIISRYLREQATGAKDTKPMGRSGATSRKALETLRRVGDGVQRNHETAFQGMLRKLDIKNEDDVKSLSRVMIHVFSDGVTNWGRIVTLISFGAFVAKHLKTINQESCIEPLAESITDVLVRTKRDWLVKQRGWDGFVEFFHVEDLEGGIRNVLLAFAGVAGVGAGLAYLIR

Row | SMILES | Ki (BCL2A1/BID [1]) | also measured
1 | C=CC(=O)Nc1ccc2c(c1)CCC(CN1CCN(c3ccc(C(=O)O)cc3)CC1)=C2c1cccc(OC)c1 | 723 nM | –
2 | C=CC(=O)Nc1ccc2c(c1)CCC(CN1CCN(c3ccc(C(=O)NS(=O)(=O)c4ccc(NCC5CCOCC5)c([N+](=O)[O-])c4)c(Oc4cnc5[nH]ccc5c4)c3)CC1)=C2c1ccc(Cl)cc1CC | 949 nM | Ki [2]: 4510 nM; IC50 (MV4-11): 2350 nM; IC50 (Pfeiffer): 7280 nM
3 | C=CC(=O)Nc1ccc2c(c1)CCC(CN1CCN(c3ccc(C(=O)O)cc3)CC1)=C2c1cn[nH]c1 | > 20000 nM | –
4 | C=CC(=O)Nc1ccc2c(c1)CCC(CN1CCN(Cc3cccc(C(=O)O)c3)CC1)=C2c1ccc(Cl)cc1 | > 20000 nM | –
5 | C=CC(=O)Nc1ccc2c(c1)CCC(CN1CCN(c3ccc(C(=O)O)c(N(C)CCCO)c3)CC1)=C2c1ccc(Cl)cc1 | > 20000 nM | –
6 | C=CC(=O)Nc1ccc2c(c1)CCC(CN1CCN(c3ccc(C(=O)O)cc3)CC1)=C2c1ccc(C#N)cc1 | > 20000 nM | –
7 | C=CC(=O)N1CCN(c2c3ccc(-c4cccc(F)c4)cc3nn2Cc2ccccc2)CC1 | 465 nM | –
8 | C=CC(=O)N(CCC)c1ccc2c(c1)CCC(CN1CCN(c3ccc(C(=O)O)cc3)CC1)=C2c1ccc(Cl)cc1CC | 124 nM | Ki [2]: 4400 nM
9 | C=CC(=O)Nc1ccc2c(c1)CCC(CN1CCN(c3ccccc3C(=O)O)CC1)=C2c1ccc(Cl)cc1 | > 20000 nM | –
10 | C=CC(=O)N(C)c1ccc2c(c1)CCC(CN1CCN(c3ccc(C(=O)O)cc3)CC1)=C2c1ccc(Cl)cc1CC | 218 nM | –
11 | C=CC(=O)N(C)c1ccc2c(c1)CCC(CN1CCN(c3ccc(C(=O)O)cc3)CC1)=C2c1ccc(Cl)cc1 | 373 nM | –
12 | C=CC(=O)Nc1ccc2c(c1)CCC(CN1CCN(c3ccc(C(=O)O)cc3)CC1)=C2c1ccc(Cl)cc1C | 251 nM | –
13 | C=CC(=O)Nc1ccc2c(c1)CCC(CN1CCN(c3ccc(C(=O)O)cc3)CC1)=C2c1ccc(Cl)cc1OC | 959 nM | –
14 | C=CC(=O)Nc1ccc2c(c1)CCC(CN1CCN(c3ccc(C(=O)O)cc3)CC1)=C2c1ccc(C(=O)O)cc1 | > 20000 nM | –
15 | C=CC(=O)Nc1ccc2c(c1)CCC(CN1CCN(c3cccc(C(=O)O)c3)CC1)=C2c1ccc(Cl)cc1 | > 20000 nM | –
16 | C=CC(=O)Nc1ccc2c(c1)CCC(CN1CCN(c3ccc(C(=O)O)cc3)CC1)=C2c1ccc(Cl)cc1F | 361 nM | –
17 | CN(C)C/C=C/C(=O)Nc1cc2c(Nc3ccc(F)c(Cl)c3)ncnc2cc1O[C@H]1CCOC1 [AFATINIB] | – | half-life [3]: 13.2 min
18 | C=CC(=O)Nc1ccc2c(c1)CCC(CN1CCN(c3ccc(C(=O)O)cc3)CC1)=C2c1ccncc1 | 5340 nM | –
19 | Nc1ccc2c(c1)CCC(CN1CCN(c3ccc(C(=O)NS(=O)(=O)c4ccc(NCC5CCOCC5)c([N+](=O)[O-])c4)c(Oc4cnc5[nH]ccc5c4)c3)CC1)=C2c1ccc(Cl)cc1 | 1170 nM | Ki [2]: 4760 nM; IC50 (MV4-11): 4420 nM; IC50 (Pfeiffer): 8900 nM
20 | C=CC(=O)Nc1ccc2c(c1)CCC(CN1CCN(c3ccc(C(=O)O)cc3)CC1)=C2c1ccc(Cl)cc1 | 525 nM | –

Row | SMILES | Ki (BCL2A1/BID [1]) | also measured
21 | C=CC(=O)Nc1ccc2c(c1)CCC(CN1CCN(c3ccc(C(=O)NS(=O)(=O)c4ccc(NCC5CCOCC5)c([N+](=O)[O-])c4)c(Oc4cnc5[nH]ccc5c4)c3)CC1)=C2c1ccc(Cl)cc1 | > 20000 nM | Ki [2]: 4160 nM; IC50 (MV4-11): 1790 nM; IC50 (Pfeiffer): 7500 nM
22 | C=CC(=O)Nc1ccc2c(c1)CCC(CN1CCN(c3ccc(C(=O)O)c(N(C)CCCN(C)C)c3)CC1)=C2c1ccc(Cl)cc1 | 774 nM | –
23 | C=CC(=O)N(C)Cc1ccc2c(c1)CCC(CN1CCN(c3ccc(C(=O)O)cc3)CC1)=C2c1ccc(Cl)cc1 | 326 nM | –
24 | C=CC(=O)Nc1ccc2c(c1)CCC(CN1CCN(c3ccc(C(=O)O)c(-c4ccccc4)c3)CC1)=C2c1ccc(Cl)cc1 | 178 nM | –
25 | CCOC(=O)CS(=O)(=O)c1nc(-c2ccc(F)cc2)cc(C(F)(F)F)n1 | – | IC50 (BCL2A1/BID [4]): 2600 nM
26 | C=CC(=O)N(CC)c1ccc2c(c1)CCC(CN1CCN(c3ccc(C(=O)O)cc3)CC1)=C2c1ccc(Cl)cc1CC | 110 nM | IC50 (MV4-11): 33500 nM; IC50 (Pfeiffer): 22900 nM
27 | CN1CCN(C2=C(Cl)C(=O)N(c3ccc(Cl)c(Cl)c3)C2=O)CC1 | – | IC50 (BCL2A1/BID [4]): 400 nM
28 | C=CC(=O)Nc1ccc2c(c1)CCC(CN1CCN(c3ccc(C(=O)O)c(Oc4cnc5c(ccn5C)c4)c3)CC1)=C2c1ccc(Cl)cc1 | 145 nM | –
29 | C=CC(=O)Nc1ccc2c(c1)CCC(CN1CCN(c3ccc(C(=O)O)cc3)CC1)=C2c1ccc(O)cc1 | > 20000 nM | –
30 | C=CC(=O)Nc1ccc2c(c1)CCC(CN1CCN(c3ccc(C(=O)O)cc3)CC1)=C2Br | > 20000 nM | –
31 | CCc1cc(Cl)ccc1C1=C(CN2CCN(c3ccc(C(=O)NS(=O)(=O)c4ccc(NCC5CCOCC5)c([N+](=O)[O-])c4)c(Oc4cnc5[nH]ccc5c4)c3)CC2)CCc2cc(N)ccc21 | 1130 nM | Ki [2]: 3300 nM; IC50 (MV4-11): 3690 nM; IC50 (Pfeiffer): 8050 nM
32 | CC(=O)N[C@@H](Cc1c[nH]c2ccccc12)C(=O)NCCSSCCN(C)C | – | EC50 (BCL2A1/BID [4]): 1300 nM
33 | C=CC(=O)Nc1ccc2c(c1)CCC(CN1CCN(c3ccc(C(=O)O)cc3)CC1)=C2c1ccc(OC)cc1 | > 20000 nM | –
34 | C=CC(=O)Nc1ccc2c(c1)CCC(CN1CCN(c3ccc(C(=O)OCC)cc3)CC1)=C2c1ccc(Cl)cc1 | > 20000 nM | –
35 | C=CC(=O)Nc1ccc2c(c1)CCC(CN1CCN(c3ccc(C(=O)O)cc3)CC1)=C2c1ccccc1OC | > 20000 nM | –
36 | C=CC(=O)Nc1ccc2c(c1)CCC(CN1CCN(c3ccc(C(=O)O)cc3)CC1)=C2C1CC1 | > 20000 nM | –
37 | C=CC(=O)Nc1ccc2c(c1)CCC(CN1CCN(c3ccc(C(=O)O)cc3)CC1)=C2c1ccc(Cl)cc1CC | 158 nM | –
38 | C=CC(=O)Nc1ccc2c(c1)CCC(CN1CCN(c3ccc(C(=O)O)cc3)CC1)=C2c1ccn[nH]1 | > 20000 nM | –
39 | C=CC(=O)NCc1ccc2c(c1)CCC(CN1CCN(c3ccc(C(=O)O)cc3)CC1)=C2c1ccc(Cl)cc1 | 913 nM | –
40 | CC(C)(C)c1ccc(CN2CCN(S(=O)(=O)Nc3ccc(SCCc4ccccc4)cc3C(=O)O)CC2)cc1 | 645 nM | IC50 (MV4-11): 46200 nM; IC50 (Pfeiffer): 21300 nM

Row | SMILES | Ki (BCL2A1/BID [1]) | also measured
41 | C=CC(=O)Nc1ccc2c(c1)CCC(CN1CCN(c3ccc(C(=O)O)cc3)CC1)=C2c1cnn(C)c1 | > 20000 nM | –
42 | C=CC(=O)Nc1ccc2c(c1)CCC(CN1CCN(c3ccc(C(=O)O)cc3-c3ccncc3)CC1)=C2c1ccc(Cl)cc1 | > 20000 nM | –
43 | C=CC(=O)Nc1ccc2c(c1)CCC(CN1CCN(c3ccc(C(=O)NS(=O)(=O)c4ccccc4)cc3)CC1)=C2c1ccc(Cl)cc1 | > 20000 nM | –
44 | C=CC(=O)Nc1ccc2c(c1)CCC(CN1CCN(c3ccc(C(=O)O)cc3)CC1)=C2c1cccc(O)c1 | > 20000 nM | –
45 | C=CC(=O)Nc1ccc2c(c1)CCC(CN1CCN(c3ccc(C(=O)O)cc3)CC1)=C2c1ccc(NC(C)=O)cc1 | > 20000 nM | –
46 | C=CC(=O)Nc1ccc2c(c1)CCC(CN1CCNCC1)=C2c1ccc(Cl)cc1 | > 20000 nM | –
47 | C=CC(=O)Nc1ccc2c(c1)CCC(CN1CCN(c3ccc(C(=O)O)c(-c4ccncc4)c3)CC1)=C2c1ccc(Cl)cc1 | 370 nM | –
48 | C=CC(=O)Nc1ccc2c(c1)CCC(CN1CCN(c3ccc(C(=O)O)cc3)CC1)=C2c1ccccc1Cl | 409 nM | –
49 | C=CC(=O)Nc1ccc2c(c1)CCC(CN1CCN(c3ccc(C(=O)O)cc3)CC1)=C2c1ccccc1 | 781 nM | –
50 | C=CC(=O)N(c1ccc2c(c1)CCC(CN1CCN(c3ccc(C(=O)O)cc3)CC1)=C2c1ccc(Cl)cc1CC)C(C)C | 140 nM | –
51 | O=C(CCl)Nc1ccc2c(c1)CCC(CN1CCN(c3ccc(C(=O)O)cc3)CC1)=C2c1ccc(Cl)cc1 | 997 nM | –
52 | C=CC(=O)Nc1ccc2c(c1)CCC(CN1CCN(c3ccc(C(=O)O)cc3)CC1)=C2c1cccc(Cl)c1 | > 20000 nM | –
53 | C=CC(=O)Nc1ccc2c(c1)CCC(CN1CCN(c3ccc(C(=O)O)cc3-c3ccccc3)CC1)=C2c1ccc(Cl)cc1 | > 20000 nM | –
54 | C=CC(=O)N(CC)Cc1ccc2c(c1)CCC(CN1CCN(c3ccc(C(=O)O)cc3)CC1)=C2c1ccc(Cl)cc1 | 335 nM | –
55 | C=CC(=O)Nc1ccc2c(c1)CCC(CN1CCN(c3ccc(C(=O)O)cc3)CC1)=C2c1ccc(Cl)cc1Cl | 256 nM | –
56 | C=CC(=O)Nc1ccc2c(c1)CCC(CN1CCN(c3ccc(C(=O)O)c(Oc4cnc5[nH]ccc5c4)c3)CC1)=C2c1ccc(Cl)cc1 | 127 nM | Ki [2]: 2360 nM; IC50 (MV4-11): 19900 nM; IC50 (Pfeiffer): 10600 nM
57 | C=CC(=O)Nc1ccc2c(c1)CCC(CN1CCN(c3ccc(C(=O)O)cc3)CC1)=C2c1cccc2cc[nH]c12 | > 20000 nM | –
58 | C=CC(=O)Nc1ccc2c(c1)CCC(CN1CCN(Cc3ccc(C(=O)O)cc3)CC1)=C2c1ccc(Cl)cc1 | > 20000 nM | –
